What was measured:
[1] = target: Matrix metalloproteinase-9 (Homo sapiens, UniProt P14780); test: In vitro inhibitory activity against matrix metalloprotease-9.
Interstitial collagenase = target: T1, Interstitial collagenase (Homo sapiens, UniProt P03956); test: In vitro inhibitory activity against matrix metalloprotease-1
T1 sequence (P03956 whole entry): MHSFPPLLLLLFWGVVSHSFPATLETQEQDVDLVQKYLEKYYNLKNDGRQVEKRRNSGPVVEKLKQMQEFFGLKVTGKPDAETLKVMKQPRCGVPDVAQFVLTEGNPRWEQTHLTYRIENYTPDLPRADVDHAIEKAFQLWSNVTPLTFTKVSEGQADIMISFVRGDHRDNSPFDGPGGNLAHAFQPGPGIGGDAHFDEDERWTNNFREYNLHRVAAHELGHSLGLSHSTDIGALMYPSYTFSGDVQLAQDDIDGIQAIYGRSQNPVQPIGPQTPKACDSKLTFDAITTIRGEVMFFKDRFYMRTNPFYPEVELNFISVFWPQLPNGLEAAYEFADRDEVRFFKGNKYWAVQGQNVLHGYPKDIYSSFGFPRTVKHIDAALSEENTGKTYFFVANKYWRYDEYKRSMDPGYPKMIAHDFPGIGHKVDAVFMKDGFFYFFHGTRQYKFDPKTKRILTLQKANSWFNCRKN

[2] = In vivo inhibitory activity against Matrix metalloprotease enzyme by dialysis implant assay, value are relative to activity of CGS-27023 (64+/-3) at 25 mg/kg. po; type: functional
[3] = In vivo inhibition of Matrix metalloprotease enzyme by Sponge-wrapped cartilage assay, value are relative to activity of RS-130830 (27+/-3) at 10 mg/kg. po. bid; type: functional
Collagenase 3 = Collagenase 3 (Homo sapiens, UniProt P45452)
[4] = target: Disintegrin and metalloproteinase domain-containing protein 17 (Homo sapiens, UniProt P78536)
Disintegrin and metalloproteinase domain-containing protein 17, sequence (P78536 whole entry, the tested form may be a part): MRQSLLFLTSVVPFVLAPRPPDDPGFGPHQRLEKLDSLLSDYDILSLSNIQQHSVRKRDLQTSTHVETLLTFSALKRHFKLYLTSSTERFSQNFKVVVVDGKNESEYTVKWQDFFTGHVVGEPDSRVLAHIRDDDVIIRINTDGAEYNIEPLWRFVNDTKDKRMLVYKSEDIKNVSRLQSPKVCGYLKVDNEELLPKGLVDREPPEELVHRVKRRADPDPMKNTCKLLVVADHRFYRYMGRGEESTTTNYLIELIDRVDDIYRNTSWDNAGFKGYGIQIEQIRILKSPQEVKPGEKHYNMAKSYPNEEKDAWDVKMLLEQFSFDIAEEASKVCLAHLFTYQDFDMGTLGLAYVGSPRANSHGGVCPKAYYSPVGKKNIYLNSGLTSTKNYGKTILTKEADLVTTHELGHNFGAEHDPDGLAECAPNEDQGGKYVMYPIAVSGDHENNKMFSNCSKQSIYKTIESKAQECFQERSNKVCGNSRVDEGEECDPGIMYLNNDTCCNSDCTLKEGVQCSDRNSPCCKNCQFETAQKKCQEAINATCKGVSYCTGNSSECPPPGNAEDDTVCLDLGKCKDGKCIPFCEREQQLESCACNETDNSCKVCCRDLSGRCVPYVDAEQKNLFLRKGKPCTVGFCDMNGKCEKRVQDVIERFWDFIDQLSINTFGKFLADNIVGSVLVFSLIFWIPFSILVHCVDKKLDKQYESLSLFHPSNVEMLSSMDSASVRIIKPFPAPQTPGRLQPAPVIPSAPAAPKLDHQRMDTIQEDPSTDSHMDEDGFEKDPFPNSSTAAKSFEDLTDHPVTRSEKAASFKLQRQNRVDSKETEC

Matrix metalloproteinase-9, sequence (P14780 whole entry): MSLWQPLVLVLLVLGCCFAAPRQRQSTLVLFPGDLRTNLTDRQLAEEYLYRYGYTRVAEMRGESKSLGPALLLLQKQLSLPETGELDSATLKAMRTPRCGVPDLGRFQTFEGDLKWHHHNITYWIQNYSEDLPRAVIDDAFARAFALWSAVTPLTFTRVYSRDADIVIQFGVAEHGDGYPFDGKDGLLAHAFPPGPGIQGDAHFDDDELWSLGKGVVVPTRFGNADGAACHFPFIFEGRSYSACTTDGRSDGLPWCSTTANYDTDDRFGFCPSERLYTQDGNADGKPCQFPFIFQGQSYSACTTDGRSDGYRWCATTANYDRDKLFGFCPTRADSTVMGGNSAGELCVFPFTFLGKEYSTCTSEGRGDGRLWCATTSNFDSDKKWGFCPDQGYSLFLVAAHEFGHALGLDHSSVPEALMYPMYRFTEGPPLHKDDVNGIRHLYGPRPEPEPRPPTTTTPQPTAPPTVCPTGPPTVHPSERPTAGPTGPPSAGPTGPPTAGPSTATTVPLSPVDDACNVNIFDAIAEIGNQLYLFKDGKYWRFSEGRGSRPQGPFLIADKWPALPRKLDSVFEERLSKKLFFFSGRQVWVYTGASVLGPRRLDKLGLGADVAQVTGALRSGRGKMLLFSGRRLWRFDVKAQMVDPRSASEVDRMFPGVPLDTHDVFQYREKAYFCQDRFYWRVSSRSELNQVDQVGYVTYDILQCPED

SMILES: CCC(CC)Oc1ccc(S(=O)(=O)C2(C(=O)NO)CCN(Cc3ccccc3)CC2)cc1
- IC50 [1]: 14 nM
- IC50 (Interstitial collagenase): 3160 nM
- inhibition in vivo at 25 mg/kg [2]: 68%
- inhibition in vivo at 10 mg/kg [3]: 27%
- IC50 (Collagenase 3): 5 nM
- IC50 [4]: 39 nM
